Here are results for two compounds from patent publication US9353088B2, “Crystalline pharmaceutical and methods of preparation and use thereof” (SARcode Bioscience Inc., priority 2009, dated 2016).

This series in a line: Dynamic Vapor Sorption (DVS) analysis. It is filed as physicochemical. The protocol: Dynamic Vapor Sorption (DVS) analysis was performed with a Surface Measurement Systems DVS-1 water vapor sorption analyzer. The experiments were run by placing the sample on a quartz holder on top of a microbalance, and allowing the sample to equilibrate at 50% relative humidity (r.h.) before starting the pre-defined humidity program. The program proceeded in the following steps: 1 hour at 50% r.h.; 50% to 0% r.h. at a rate of 5% r.h. change per hour; 5 hours at 0% r.h; 0% r.h to […]. at 5% r.h change per hour; 5 hours at 95% r.h.; 95% r.h. to 50% r.h. at a rate of 5% r.h. change per hour, and followed by one hour at 50% r.h.

Structures are written as SMILES.

Turning to `CS(=O)(=O)c1cccc(C[C@H](NC(=O)c2c(Cl)cc3c(c2Cl)CCN(C(=O)c2ccc4ccoc4c2)C3)C(=O)O)c1` [Crystalline Form A], the “water content by DVS” value runs as follows: (after mass loss at lowest relative humidity of 0.4%) 0.5 mole water per mole free acid; (at the start of the experiment) “about 0.9 mole water per mole free acid”; (mass gain at 95% relative humidity) 1.1 mole water per mole free acid.
In the case of `CS(=O)(=O)c1cccc(C[C@H](NC(=O)c2c(Cl)cc3c(c2Cl)CCN(C(=O)c2ccc4ccoc4c2)C3)C(=O)O)c1` [Crystalline Form B], the hygroscopicity result (DVS, 50 hours, 5 hours at 95% relative humidity) is “does not appear to be hygroscopic”.
